In patent publication US20110190365A1, “Insecticidal 4-phenyl-1H-pyrazoles” (Bayer Crop Science AG, priority 2008, published 2011):

test: log P by HPLC on a reversed-phase column (C18), EEC Directive 79/831 Annex V.A8; type: physicochemical; conditions: HCOOH
Experimental: The stated log P values were determined in accordance with EEC Directive 79/831 Annex V.A8 by HPLC (High Performance Liquid Chromatography) using a reversed-phase column (C18).

SMILES | log P (HCOOH)
Cc1cc(-n2nc(C)c(-c3ccc(F)cc3Cl)c2N)ccc1C(=O)NCC(F)(F)C(F)F [I-A-Q2-327] | I-A-Q2-327: log P (HCOOH): 2.73
Cc1cc(-n2nc(CC(C)C)c(-c3ccc(Cl)cc3)c2N)ccc1C(=O)NCC(F)(F)C(F)F [I-A-Q2-342] | I-A-Q2-342: log P (HCOOH): 3.85
Cc1cc(-n2nc(C(F)(F)C(F)(F)F)c(-c3cc(C(F)(F)F)cc(C(F)(F)F)c3)c2N)ccc1C(=O)NCc1ccccn1 [I-A-Q2-383] | I-A-Q2-383: log P (HCOOH): 3.94
Cc1cc(-n2nc(C(F)(F)Cl)c(-c3cc(Cl)cc(C(F)(F)F)c3)c2N)ccc1C(=O)NCc1ccccn1 [I-A-Q2-364] | I-A-Q2-364: log P (HCOOH): 3.53
Cc1cc(-n2nc(C(F)(F)F)c(-c3cc(Cl)cc(Cl)c3)c2N)ccc1C(=O)NCC(F)(F)C(F)(F)F [I-A-Q2-269] | I-A-Q2-269: log P (HCOOH): 4.57
Nc1c(-c2cccc(Cl)c2)c(C(F)(F)F)nn1-c1ccc(C(=O)NCC(F)(F)F)cc1 [I-A-Q2-085] | I-A-Q2-085: log P (HCOOH): 3.47
CC(NC(=O)c1ccc(-n2nc(C(F)(F)F)c(-c3cccc(Cl)c3)c2N)cc1)C(F)(F)F (stereo not drawn) [I-A-Q2-083] | I-A-Q2-083: log P (HCOOH): 3.68
CCc1nn(-c2ccc(C(=O)NCc3ccccn3)c(C)c2)c(N)c1-c1ccc(Cl)cc1 [I-A-Q2-379] | I-A-Q2-379: log P (HCOOH): 2.20
CC(NC(=O)c1ccc(-n2nc(C(F)(F)F)c(-c3cc(Cl)cc(Cl)c3)c2N)nc1)c1ccccc1 (stereo not drawn) [I-A-Q2-103] | I-A-Q2-103: log P (HCOOH): 5.19
Cc1cc(-n2nc(C(C)C)c(-c3ccc(Cl)cc3)c2N)ccc1C(=O)NCc1ccccn1 [I-A-Q2-378] | I-A-Q2-378: log P (HCOOH): 2.61
Cc1cc(-n2nc(C(F)(F)F)c(-c3cc(Cl)cc(Cl)c3)c2N)ccc1C(=O)NC(Cc1ccccn1)C(F)(F)F (stereo not drawn) [I-A-Q2-049] | I-A-Q2-049: log P (HCOOH): 4.28
Nc1c(-c2cc(Cl)cc(Cl)c2)c(C(F)(F)F)nn1-c1ccc(C(=O)NCc2ccc(Cl)nc2)cc1 [I-A-Q2-148] | I-A-Q2-148: log P (HCOOH): 4.12
CC(NC(=O)c1ccc(-n2nc(C(F)(F)F)c(-c3cc(Cl)cc(Cl)c3)c2N)nc1)c1ccccn1 (stereo not drawn) [I-A-Q2-102] | I-A-Q2-102: log P (HCOOH): 4.06
Cc1cc(-n2nc(C(F)(F)C(F)(F)F)c(-c3ccc(Cl)cc3)c2N)ccc1C(=O)NCc1ccccn1 [I-A-Q2-363] | I-A-Q2-363: log P (HCOOH): 3.19
CCCNC(=O)c1ccc(-n2nc(C(F)(F)F)c(-c3cc(Cl)cc(Cl)c3)c2N)cc1C [I-A-Q2-202] | I-A-Q2-202: log P (HCOOH): 4.22
CCCCCNC(=O)c1ccc(-n2nc(C(F)(F)F)c(-c3cc(Cl)cc(Cl)c3)c2N)cc1C [I-A-Q2-237] | I-A-Q2-237: log P (HCOOH): 4.76
CC(NC(=O)c1ccc(-n2nc(C(F)(F)F)c(-c3cc(Cl)cc(Cl)c3)c2N)nc1)C(F)(F)F (stereo not drawn) [I-A-Q2-100] | I-A-Q2-100: log P (HCOOH): 4.96
Cc1cc(-n2nc(C(F)(F)C(F)(F)F)c(-c3ccc(Cl)cc3)c2N)ccc1C(=O)NCC(F)(F)C(F)F [I-A-Q2-321] | I-A-Q2-321: log P (HCOOH): 4.00
CCCc1nn(-c2ccc(C(=O)NCC(F)(F)C(F)F)c(C)c2)c(N)c1-c1ccc(Cl)cc1 [I-A-Q2-340] | I-A-Q2-340: log P (HCOOH): 3.56
Cc1cc(-n2nc(C(F)(F)F)c(-c3cccc(F)c3)c2N)ccc1C(=O)NCc1ccccn1 [I-A-Q2-354] | I-A-Q2-354: log P (HCOOH): 2.31
Nc1c(-c2cc(Cl)cc(Cl)c2)c(C(F)(F)F)nn1-c1ccc(C(=O)NCC(F)(F)F)cc1 [I-A-Q2-138] | I-A-Q2-138: log P (HCOOH): 4.21

SMILES | log P (HCOOH)
Cc1cc(-n2nc(C(F)(F)F)c(-c3ccc(Cl)cc3Cl)c2N)ccc1C(=O)NCC(F)(F)C(F)F [I-A-Q2-305] | I-A-Q2-305: log P (HCOOH): 3.75
Cc1cc(CNC(=O)c2ccc(-n3nc(C(F)(F)F)c(-c4cc(Cl)cc(Cl)c4)c3N)cc2C)n(C)n1 [I-A-Q2-254] | I-A-Q2-254: log P (HCOOH): 3.58
Nc1c(-c2cc(Cl)cc(Cl)c2)c(C(F)(F)F)nn1-c1ccc(C(=O)NCC(F)(F)F)cn1 [I-A-Q2-101] | I-A-Q2-101: log P (HCOOH): 4.71
CCOC(=O)c1ccc(-n2nc(C(F)(F)F)c(Br)c2N)cc1 [XI-A-018] | XI-A-018: log P (HCOOH): 3.60
Cc1cc(-n2nc(C(F)(F)F)c(-c3cccc(Br)c3)c2N)ccc1C(=O)NCC(F)(F)C(F)F [I-A-Q2-314] | I-A-Q2-314: log P (HCOOH): 3.65
Cc1cc(-n2nc(C(F)(F)F)c(-c3cc(Cl)cc(Cl)c3)c2N)ccc1C(=O)NC(c1cc(Cl)cc(Cl)c1)C(F)(F)F (stereo not drawn) [I-A-Q2-043] | I-A-Q2-043: log P (HCOOH): 5.65
Cc1cc(-n2nc(C(F)(F)F)c(Br)c2N)ccc1C(=O)NCc1ccccn1 [XI-A-093] | XI-A-093: log P (HCOOH): 1.98
Cc1cc(-n2nc(C(F)(F)F)cc2N)ccc1C(=O)NCc1ccccn1 [XI-A-089] | XI-A-089: log P (HCOOH): 2.45
Cc1cc(-n2nc(C(F)(F)F)c(-c3cc(Cl)cc(Cl)c3)c2N)ccc1C(=O)N(Cc1ccccn1)C1CC1 [I-A-Q2-111] | I-A-Q2-111: log P (HCOOH): 4.17
Nc1c(-c2cc(Cl)cc(Cl)c2)c(C(F)(F)F)nn1-c1ccc(C(=O)NCc2cccnc2)cn1 [I-A-Q2-107] | I-A-Q2-107: log P (HCOOH): 2.95
Cc1cc(-n2nc(C(F)(F)F)c(-c3cc(Cl)cc(Cl)c3)c2N)ccc1C(=O)N(C)C(C)c1cccnc1 (stereo not drawn) [I-A-Q2-208] | I-A-Q2-208: log P (HCOOH): 3.19
Cc1cc(-n2nc(C(F)(F)F)c(-c3cc(Cl)cc(Cl)c3)c2N)ccc1C(=O)N(C)CC(F)(F)F [I-A-Q2-236] | I-A-Q2-236: log P (HCOOH): 4.51
Cc1cc(-n2nc(C(F)(F)F)c(-c3cc(Cl)cc(Cl)c3)c2N)ccc1C(=O)NCc1cccc(Br)n1 [I-A-Q2-253] | I-A-Q2-253: log P (HCOOH): 4.40
Cc1cc(-n2nc(C)c(-c3cc(Cl)ccc3Cl)c2N)ccc1C(=O)NCc1ccccn1 [I-A-Q2-375] | I-A-Q2-375: log P (HCOOH): 2.04
COc1cnc(CNC(=O)c2ccc(-n3nc(C(F)(F)F)c(-c4cc(Cl)cc(Cl)c4)c3N)cc2C)cc1OC [I-A-Q2-037] | I-A-Q2-037: log P (HCOOH): 2.42
Nc1c(-c2cc(Cl)cc(Cl)c2)c(C(F)(F)F)nn1-c1ccc(C(=O)NCc2ccccn2)c(C(F)(F)F)c1 [I-A-Q2-386] | I-A-Q2-386: log P (HCOOH): 3.77
Cc1cc(-n2nc(C(F)(F)F)cc2N)ccc1C(=O)O [XI-A-084] | XI-A-084: log P (HCOOH): 3.53
Cc1cc(-n2nc(C)c(-c3ccc(F)cc3F)c2N)ccc1C(=O)NCC(F)(F)C(F)F [I-A-Q2-329] | I-A-Q2-329: log P (HCOOH): 2.59
Cc1cc(-n2nc(C)c(-c3ccc(Cl)c(Cl)c3)c2N)ccc1C(=O)NCC(F)(F)C(F)F [I-A-Q2-323] | I-A-Q2-323: log P (HCOOH): 4.32
Nc1c(-c2cccc(F)c2)c(C(F)(F)F)nn1-c1ccc(C(=O)NC2CC2)cc1 [I-A-Q2-184] | I-A-Q2-184: log P (HCOOH): 2.76
Nc1c(Br)c(C(F)(F)F)nn1-c1ccc(C(=O)O)cc1 [XI-A-038] | XI-A-038: log P (HCOOH): 2.38

same assay, conditions: HCOOH; Table 4, compounds of formula I-A-Q4

SMILES | log P (HCOOH)
Nc1c(-c2cccc(Br)c2)c(C(F)(F)F)nn1-c1ccc(C(=O)O)cc1 [I-A-Q4-091] | I-A-Q4-091: log P (HCOOH): 3.29
Nc1c(-c2cccc(F)c2)c(C(F)(F)F)nn1-c1ccc(Cl)cn1 [I-A-Q4-049] | I-A-Q4-049: log P (HCOOH): 4.51
Nc1c(-c2cc(Cl)cc(Cl)c2)c(C(F)(F)F)nn1-c1ccc(F)c(F)c1 [I-A-Q4-109] | I-A-Q4-109: log P (HCOOH): 4.77
Cc1nn(-c2ccc(Cl)cn2)c(N)c1-c1ccc(Cl)cc1Cl [I-A-Q4-021] | I-A-Q4-021: log P (HCOOH): 4.70
Cc1ccccc1-c1c(C(F)(F)F)nn(-c2ccc(Cl)cn2)c1N [I-A-Q4-054] | I-A-Q4-054: log P (HCOOH): 4.64
Nc1c(-c2cc(Cl)cc(Cl)c2)c(C(F)(F)F)nn1-c1ccc(Cl)cn1 [I-A-Q4-014] | I-A-Q4-014: log P (HCOOH): 5.76
Cc1nn(-c2ccc(Cl)cn2)c(N)c1-c1ccc(F)cc1Cl [I-A-Q4-037] | I-A-Q4-037: log P (HCOOH): 4.05

same assay, conditions: HPLC, reversed-phase C18, mobile phase with formic acid

SMILES | log P (HCOOH)
N#Cc1cc(-n2nc(C(F)(F)F)c(-c3ccc(I)cc3)c2N)ccc1-n1cncn1 [I-A-Q1-043] | I-A-Q1-043: log P (HCOOH): 3.61
Nc1c(-c2cc(Cl)cc(Cl)c2)c(C(F)(F)F)nn1-c1ccc(-n2cncn2)c(Cl)c1 [I-A-Q1-069] | I-A-Q1-069: log P (HCOOH): 4.14
N#Cc1cc(-n2nc(C(F)(F)Oc3cccc(Cl)c3)c(-c3cc(Cl)cc(C(F)(F)F)c3)c2N)ccc1-n1cncn1 [I-A-Q1-072] | I-A-Q1-072: log P (HCOOH): 4.82
Cc1nn(-c2ccc(-n3cncn3)c(C#N)c2)c(N)c1-c1c(F)cccc1Cl [I-A-Q1-051] | I-A-Q1-051: log P (HCOOH): 2.27
N#Cc1cc(-n2nc(C(F)(F)F)c(-c3cc(Cl)cc(Cl)c3)c2N)ccc1-n1nc(C(F)F)cc1C(F)F [I-A-Q1-080] | I-A-Q1-080: log P (HCOOH): 4.64
CC(=O)NCc1ccc(-n2nc(C(F)(F)F)c(-c3cc(Cl)cc(Cl)c3)c2N)cc1Cl [I-A-Q3-023] | I-A-Q3-023: log P (HCOOH): 3.70
N#Cc1cc(-n2nc(C(F)F)c(-c3ccc(Cl)cc3)c2N)ccc1-n1cncn1 [I-A-Q1-030] | I-A-Q1-030: log P (HCOOH): 2.92
Cc1nn(-c2ccc(-n3cncn3)c(C#N)c2)c(N)c1-c1cc(F)ccc1F [I-A-Q1-061] | I-A-Q1-061: log P (HCOOH): 2.29
